In paper PMC5949855 (2015):

Assays:
[1] = tested on: HT21 (DNA, G4) GGGTTAGGGTTAGGGTTAGGG; assay: UV melting; conditions: NH4+ 30 mM, compound concentration not given in material
[2] = tested on: HT21 (DNA, G4) GGGTTAGGGTTAGGGTTAGGG; assay: ITC; conditions: for K a1: two-event model, high-affinity site
[3] = tested on: HT21 (DNA, G4) GGGTTAGGGTTAGGGTTAGGG; assay: UV melting, 295 nm; conditions: no monovalent cation added; compound concentration not given in material
[4] = tested on: L-HT21 (L-DNA, G4, all nucleotides L-DNA (enantiomer of HT21)) GGGTTAGGGTTAGGGTTAGGG; assay: CD; conditions: NH4+ 30 mM; mirror image CD of the HT21 complex
[5] = value given for CuL1-CuL4 together
[6] = NH4+ 30 mM, 20 mM MOPS pH 6.5, 298 K

SMILES	ΔTm [1, 5]	K a1 [2, 6]	ΔTm [1]	also measured
O=[N+]([O-])[O-].O=[N+]([O-])[O-].[Cu+2].c1ccc(-c2cc(-c3ccc(OCCN4CCCCC4)cc3)cc(-c3ccccn3)n2)nc1	~ 20 °C	(1.7 ± 0.3) × 10^7 M^–1		
O=[N+]([O-])[O-].O=[N+]([O-])[O-].[Cu+2].c1ccc(-c2cc(-c3ccc(OCCN4CCOCC4)cc3)cc(-c3ccccn3)n2)nc1	~ 20 °C	(1.7 ± 0.3) × 10^7 M^–1		
CN(C)CCOc1ccc(-c2cc(-c3ccccn3)nc(-c3ccccn3)c2)cc1.O=[N+]([O-])[O-].O=[N+]([O-])[O-].[Cu+2]	~ 20 °C	(1.7 ± 0.3) × 10^7 M^–1		
Cc1ccc(-c2cc(-c3ccccn3)nc(-c3ccccn3)c2)cc1.O=[N+]([O-])[O-].O=[N+]([O-])[O-].[Cu+2]			~ 10 °C	Ka ([2]; NH4+ 30 mM, 20 mM MOPS pH 6.5, 298 K, one-event binding model): (2.0 ± 0.5) × 10^5 M^–1
O=[N+]([O-])[O-].O=[N+]([O-])[O-].[Cu+2].c1ccc(-c2cc(-c3ccc(OCCN4CCCC4)cc3)cc(-c3ccccn3)n2)nc1	~ 20 °C	(1.7 ± 0.2) × 10^7 M^–1		ΔTm [3]: ~ 13 °C; binding [4]: yes; Ka ([2]; no monovalent cation added, 298 K, three-event model, first (strongest) event): (1.5±0.6)E8 M^-1
O=[N+]([O-])[O-].O=[N+]([O-])[O-].[Cu+2].c1ccc(-c2cccc(-c3ccccn3)n2)nc1			~ 5 °C	binding ([2]; NH4+ 30 mM, 20 mM MOPS pH 6.5, 298 K, affinity too low to be determined): weak
